Experiments:
[1] = target: hERG channel (Homo sapiens, UniProt Q12809); test: hERG channel inhibition, IonWorks HT electrophysiology in CHO-hERG cells
[2] = target: T1, CYP2C9 (Homo sapiens, UniProt P11712); test: biochemical; format: in vitro ADME; conditions: Substrate = Tolbutamide, human liver microsomes
T1 construct: from tissue; host or cells: human liver microsomes
Description: (§1) Supplementary file 40035_2019_148_MOESM2_ESM.pdf: Additional file 2: Cytochrome P450 Inhibition (IC50 Determination). CYP1A Inhibition. VCE-003.2 (0.1, 0.25, 1, 2.5, 10, 25 μM in DMSO; final DMSO concentration = 0.3%) was incubated with human liver microsomes (0.25 mg/mL) and NADPH (1 mM) in the presence of the probe substrate ethoxyresorufin (0.5 μM) for 5 min at 37 °C. The selective CYP1A inhibitor, alpha-naphthoflavone, was screened alongside the test compounds as a positive control. CYP2B6 Inhibition. VCE-003.2 (0.1, 0.25, 1, 2.5, 10, 25 μM in DMSO; final DMSO concentration = 0.3%) was incubated with human liver microsomes (0.1 mg/mL) and NADPH (1 mM) in the presence of the probe substrate bupropion (110 μM) for 5 min at 37 °C. The selective CYP2B6 inhibitor, ticlopidine, was screened alongside the test compounds as a positive control. CYP2C8 Inhibition. VCE-003.2 (0.1, 0.25, 1, 2.5, 10, 25 μM in DMSO; final DMSO concentration = 0.3%) was incubated with human liver microsomes (0.25 mg/mL) and NADPH (1 mM) in the presence of the probe substrate paclitaxel (7.5 μM) for 30 min at 37 °C. The selective CYP2C8 inhibitor, montelukast, was screened alongside the test compounds as a positive control. CYP2C9 Inhibition. VCE-003.2 (0.1, 0.25, 1, 2.5, 10, 25 μM in DMSO; final DMSO concentration = 0.3%) was incubated with human liver microsomes (1 mg/mL) and NADPH (1 mM) in the presence of the probe substrate tolbutamide (120 μM) for 60 min at 37 °C. The selective CYP2C9 inhibitor, sulphaphenazole, was screened alongside the test compounds as a positive control. CYP2C19 Inhibition. VCE-003.2 (0.1, 0.25, 1, 2.5, 10, 25 μM in DMSO; final DMSO concentration = 0.3%) was incubated with human liver microsomes (0.5 mg/mL) and NADPH (1 mM) in the presence of the probe substrate mephenytoin (25 μM) for 60 min at 37 °C. The selective CYP2C19 inhibitor, tranylcypromine, was screened alongside the test compounds as a positive control. CYP2D6 Inhibition. VCE-003.2 (0.1, 0.25, 1, 2.5, 10, 25 μM in DMSO; final DMSO concentration = 0.3%) was incubated with human liver microsomes (0.5 mg/mL) and NADPH (1 mM) in the presence of the probe substrate dextromethorphan (5 μM) for 5 min at 37 °C. […] CYP3A4 Inhibition. VCE-003.2 (0.1, 0.25, 1, 2.5, 10, 25 μM in DMSO; final DMSO concentration = 0.3%) was incubated with human liver microsomes (0.1 mg/mL) and NADPH (1 mM) in the presence of the probe substrate midazolam (2.5 μM) for 5 min at 37 °C. The selective CYP3A4 inhibitor, ketoconazole, was screened alongside the test compounds as a positive control. CYP3A4 Inhibition. VCE-003.2 (0.1, 0.25, 1, 2.5, 10, 25 μM in DMSO; final DMSO concentration = 0.3%) was incubated with human liver microsomes (0.5 mg/mL) and NADPH (1 mM) in the presence of the probe substrate testosterone (50 μM) for 5 min at 37 °C. The selective CYP3A4 inhibitor, ketoconazole, was screened alongside the test compounds as a positive control. For the CYP1A incubations, the reactions were terminated by methanol, and the formation of the metabolite, resorufin, was monitored by fluorescence (excitation wavelength = 535 nm, emission wavelength = 595 nm). For the CYP2B6, CYP2C9, CYP2C19, CYP2D6, and CYP3A4 incubations, the reactions were terminated by methanol. The samples were centrifuged, and the supernatants combined for the simultaneous analysis of 4-hydroxytolbutamide, 4-hydroxymephenytoin, dextrorphan, and 1-hydroxymidazolam by LC-MS/MS. Hydroxybupropion, 6α-hydroxypaclitaxel and 6ß-hydroxytestosterone were analyzed separately by LC-MS/MS. A decrease in the formation of the metabolites compared to vehicle control was used to calculate IC50 values. (PDF 323 kb)

[3] = target: T2, CYP2D6 (Homo sapiens, UniProt P10635); test: biochemical; format: in vitro ADME; conditions: Substrate = Dextromethorphan, human liver microsomes
T2 construct: from tissue; host or cells: human liver microsomes
Description: as §1

[4] = target: T3, CYP2C8 (Homo sapiens, UniProt P10632); test: biochemical; format: in vitro ADME; conditions: Substrate = Paclitaxel, human liver microsomes
T3 construct: from tissue; host or cells: human liver microsomes
Description: as §1

[5] = target: T4, CYP2C19 (Homo sapiens, UniProt P33261); test: biochemical; format: in vitro ADME; conditions: Substrate = Mephenytoin, human liver microsomes
T4 construct: from tissue; host or cells: human liver microsomes
Description: as §1

[6] = target: T5, CYP2B6 (Homo sapiens, UniProt P20813); test: biochemical; format: in vitro ADME; conditions: Substrate = Bupropion, human liver microsomes
T5 construct: from tissue; host or cells: human liver microsomes
Description: as §1

T1 sequence (P11712 whole entry): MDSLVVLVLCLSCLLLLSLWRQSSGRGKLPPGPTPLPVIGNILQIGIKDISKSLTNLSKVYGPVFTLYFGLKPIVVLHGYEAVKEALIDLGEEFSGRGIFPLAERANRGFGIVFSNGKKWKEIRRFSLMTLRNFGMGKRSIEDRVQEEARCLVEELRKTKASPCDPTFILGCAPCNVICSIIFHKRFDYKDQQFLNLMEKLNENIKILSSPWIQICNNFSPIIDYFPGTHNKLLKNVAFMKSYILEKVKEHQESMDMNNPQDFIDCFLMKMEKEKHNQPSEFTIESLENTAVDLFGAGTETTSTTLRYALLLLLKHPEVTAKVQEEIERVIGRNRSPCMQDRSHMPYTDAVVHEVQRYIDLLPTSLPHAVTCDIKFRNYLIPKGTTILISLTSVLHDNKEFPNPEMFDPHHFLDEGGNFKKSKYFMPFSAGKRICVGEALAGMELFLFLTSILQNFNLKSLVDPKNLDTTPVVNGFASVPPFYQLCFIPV
T2 sequence (P10635 whole entry): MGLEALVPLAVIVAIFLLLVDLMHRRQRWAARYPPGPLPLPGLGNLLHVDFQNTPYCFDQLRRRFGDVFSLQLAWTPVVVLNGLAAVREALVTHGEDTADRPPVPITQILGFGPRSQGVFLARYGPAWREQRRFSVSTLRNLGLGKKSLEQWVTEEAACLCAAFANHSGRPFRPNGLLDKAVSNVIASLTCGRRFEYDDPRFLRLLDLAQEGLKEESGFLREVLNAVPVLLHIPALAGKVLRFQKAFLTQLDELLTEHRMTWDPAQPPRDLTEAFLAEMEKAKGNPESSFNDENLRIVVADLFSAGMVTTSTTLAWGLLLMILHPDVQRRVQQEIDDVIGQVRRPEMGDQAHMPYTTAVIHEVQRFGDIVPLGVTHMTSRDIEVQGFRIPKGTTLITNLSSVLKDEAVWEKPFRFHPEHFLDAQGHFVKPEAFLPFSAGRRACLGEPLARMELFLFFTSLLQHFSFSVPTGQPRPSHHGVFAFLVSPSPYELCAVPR
T5 sequence (P20813 whole entry): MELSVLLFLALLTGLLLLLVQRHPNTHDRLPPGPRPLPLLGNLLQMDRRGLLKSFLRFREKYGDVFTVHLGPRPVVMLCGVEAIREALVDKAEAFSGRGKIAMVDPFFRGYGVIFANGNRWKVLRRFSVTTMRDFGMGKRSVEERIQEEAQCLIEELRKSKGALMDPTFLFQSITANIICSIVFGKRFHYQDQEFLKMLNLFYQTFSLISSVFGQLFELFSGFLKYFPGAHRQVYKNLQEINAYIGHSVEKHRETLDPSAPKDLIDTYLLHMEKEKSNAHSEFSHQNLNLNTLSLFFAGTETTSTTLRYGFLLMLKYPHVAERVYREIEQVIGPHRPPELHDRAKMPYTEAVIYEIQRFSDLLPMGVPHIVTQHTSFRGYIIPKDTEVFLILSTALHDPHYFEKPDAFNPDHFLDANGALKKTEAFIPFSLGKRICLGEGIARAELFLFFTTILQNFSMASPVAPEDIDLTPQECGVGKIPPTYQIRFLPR
Chain of hERG channel (Q12809 whole entry): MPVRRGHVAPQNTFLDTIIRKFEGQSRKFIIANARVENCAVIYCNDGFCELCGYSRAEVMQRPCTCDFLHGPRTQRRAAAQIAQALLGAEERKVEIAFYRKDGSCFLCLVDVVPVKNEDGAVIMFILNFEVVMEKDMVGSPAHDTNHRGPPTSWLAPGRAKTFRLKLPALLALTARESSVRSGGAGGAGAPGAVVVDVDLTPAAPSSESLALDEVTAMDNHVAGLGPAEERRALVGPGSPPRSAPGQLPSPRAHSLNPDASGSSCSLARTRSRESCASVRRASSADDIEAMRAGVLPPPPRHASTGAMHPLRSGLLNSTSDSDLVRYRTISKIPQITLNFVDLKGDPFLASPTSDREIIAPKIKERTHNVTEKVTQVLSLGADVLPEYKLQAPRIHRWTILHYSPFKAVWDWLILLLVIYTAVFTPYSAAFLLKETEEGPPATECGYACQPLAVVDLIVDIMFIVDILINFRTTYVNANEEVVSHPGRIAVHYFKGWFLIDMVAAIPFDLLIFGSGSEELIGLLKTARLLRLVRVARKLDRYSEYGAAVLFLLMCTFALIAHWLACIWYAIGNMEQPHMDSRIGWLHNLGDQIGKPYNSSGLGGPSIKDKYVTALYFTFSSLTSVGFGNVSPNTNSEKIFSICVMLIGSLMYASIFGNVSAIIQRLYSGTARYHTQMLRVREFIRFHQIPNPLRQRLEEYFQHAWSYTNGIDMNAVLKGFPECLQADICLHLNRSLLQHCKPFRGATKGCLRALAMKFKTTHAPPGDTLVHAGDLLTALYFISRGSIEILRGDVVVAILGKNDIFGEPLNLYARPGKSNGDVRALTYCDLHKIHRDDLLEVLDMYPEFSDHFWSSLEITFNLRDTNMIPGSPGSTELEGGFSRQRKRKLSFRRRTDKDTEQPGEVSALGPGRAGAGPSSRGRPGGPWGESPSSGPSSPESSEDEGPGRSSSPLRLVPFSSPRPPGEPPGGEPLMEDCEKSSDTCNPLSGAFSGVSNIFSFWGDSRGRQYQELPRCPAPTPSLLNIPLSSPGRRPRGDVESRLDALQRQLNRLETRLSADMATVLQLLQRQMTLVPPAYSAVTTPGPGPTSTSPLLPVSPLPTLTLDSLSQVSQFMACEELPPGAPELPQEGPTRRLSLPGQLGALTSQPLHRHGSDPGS
T4 sequence (P33261 whole entry): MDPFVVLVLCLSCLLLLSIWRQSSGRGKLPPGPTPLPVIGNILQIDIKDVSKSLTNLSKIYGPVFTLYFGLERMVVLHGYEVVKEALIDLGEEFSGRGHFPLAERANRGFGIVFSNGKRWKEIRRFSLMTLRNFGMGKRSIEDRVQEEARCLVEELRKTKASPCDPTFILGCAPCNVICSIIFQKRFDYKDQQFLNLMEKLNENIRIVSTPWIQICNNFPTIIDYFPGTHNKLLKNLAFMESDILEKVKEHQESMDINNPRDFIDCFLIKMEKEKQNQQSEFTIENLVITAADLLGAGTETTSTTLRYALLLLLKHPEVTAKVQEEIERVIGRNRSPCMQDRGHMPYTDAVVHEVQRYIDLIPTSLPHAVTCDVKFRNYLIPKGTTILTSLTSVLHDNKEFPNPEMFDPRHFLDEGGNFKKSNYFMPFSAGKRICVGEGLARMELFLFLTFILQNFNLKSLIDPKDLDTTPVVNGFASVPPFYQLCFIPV
T3 sequence (P10632 whole entry): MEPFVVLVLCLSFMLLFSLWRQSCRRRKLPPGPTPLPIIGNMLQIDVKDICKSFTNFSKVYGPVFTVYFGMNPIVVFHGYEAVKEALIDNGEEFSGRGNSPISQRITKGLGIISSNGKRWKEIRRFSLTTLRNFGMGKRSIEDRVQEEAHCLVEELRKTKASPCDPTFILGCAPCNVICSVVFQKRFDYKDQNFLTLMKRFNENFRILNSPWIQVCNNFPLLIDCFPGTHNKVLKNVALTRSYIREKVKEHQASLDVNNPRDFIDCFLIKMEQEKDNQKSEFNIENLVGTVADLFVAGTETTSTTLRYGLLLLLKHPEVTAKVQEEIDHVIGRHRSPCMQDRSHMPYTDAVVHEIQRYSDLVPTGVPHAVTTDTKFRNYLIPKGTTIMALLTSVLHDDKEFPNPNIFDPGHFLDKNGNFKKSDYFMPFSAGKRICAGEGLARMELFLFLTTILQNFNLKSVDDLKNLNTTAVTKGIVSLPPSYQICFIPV

**Q.** What does the source list for CCCCCC1=C(NCC)C(=O)C(CC=C(C)CCC=C(C)C)=C(O)C1=O [VCE-003.2, 2-(3,7-dimethyl-octa-2,6-dienyl)-6-ethylamino-3-hydroxy-5-pentyl-(1,4) benzoquinone]?
**A.** IC50 [1]: > 25 µM; IC50 [2]: 15.7 ± 1.96 µM; IC50 [3]: > 25 µM; IC50 [4]: 13 ± 2.4 µM; IC50 [5]: > 25 µM; IC50 [6]: > 25 µM

From paper PMC6407204, “Oral administration of the cannabigerol derivative VCE-003.2 promotes subventricular zone neurogenesis and protects against mutant huntingtin-induced neurodegeneration” (Translational Neurodegeneration, 2019)
